Patent publication US20050223431A1, “Methods of modulating glucosinolate production in plants” (The Arizona Board of Regents on Behalf of the University of …, priority 2000, published 2005)

Assays:
[1] = molecular target: T1, CYP83B1 (Arabidopsis thaliana, UniProt O65782); set-up: made in house; host or cells: yeast WAT11 cells, pYeDP60 vector; microsomes; conditions: cited from earlier work
T1 sequence (O65782 1-499): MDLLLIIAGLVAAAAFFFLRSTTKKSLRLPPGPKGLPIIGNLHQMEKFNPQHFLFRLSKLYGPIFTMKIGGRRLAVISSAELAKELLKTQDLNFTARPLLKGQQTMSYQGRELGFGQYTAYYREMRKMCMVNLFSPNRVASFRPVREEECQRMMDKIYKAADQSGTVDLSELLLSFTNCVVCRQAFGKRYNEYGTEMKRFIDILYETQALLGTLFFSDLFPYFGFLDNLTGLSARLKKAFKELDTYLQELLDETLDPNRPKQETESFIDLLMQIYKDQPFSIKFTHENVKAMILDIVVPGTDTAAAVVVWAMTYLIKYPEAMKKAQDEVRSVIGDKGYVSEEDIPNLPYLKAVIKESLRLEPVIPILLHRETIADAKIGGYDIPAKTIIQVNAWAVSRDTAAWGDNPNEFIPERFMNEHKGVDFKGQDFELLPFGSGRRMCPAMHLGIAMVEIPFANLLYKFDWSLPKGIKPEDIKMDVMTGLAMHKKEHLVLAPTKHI

[2] = molecular target: T2, CYP83A1 (Arabidopsis thaliana, UniProt P48421); assay: biochemical; conditions: for Relative affinity for ligand binding, from amplitudes of type II spectra / Type II spectrum (ligand binding to active site): CYP83A1, 200 μM ligand
T2 sequence (P48421 1-502): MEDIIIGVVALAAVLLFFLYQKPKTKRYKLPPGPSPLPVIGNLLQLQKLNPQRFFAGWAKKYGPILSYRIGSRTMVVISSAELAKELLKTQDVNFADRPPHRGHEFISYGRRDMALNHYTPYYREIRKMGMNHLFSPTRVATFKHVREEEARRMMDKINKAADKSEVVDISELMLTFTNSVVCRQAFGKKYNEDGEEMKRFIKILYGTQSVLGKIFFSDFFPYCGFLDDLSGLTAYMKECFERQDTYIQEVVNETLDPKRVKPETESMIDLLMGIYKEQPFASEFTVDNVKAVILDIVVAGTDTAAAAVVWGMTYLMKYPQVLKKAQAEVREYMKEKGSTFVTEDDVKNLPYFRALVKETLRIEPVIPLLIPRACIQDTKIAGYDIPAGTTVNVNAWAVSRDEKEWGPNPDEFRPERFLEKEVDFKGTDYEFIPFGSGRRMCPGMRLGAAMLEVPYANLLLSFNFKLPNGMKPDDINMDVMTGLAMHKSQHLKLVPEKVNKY
Source text: (§1) FIG. 6 is a spectral characterization of CYP83A1 and CYP83B1. […] 1) tryptamine, 2) β-phenylethylamine, 3) tyramine, 4) n-octylamine, 5) 5-OH-tryptamine, 6) 3-OH-tyramine, B) baseline.
(§2) To compensate for ligand absorbance, the experimental data were fitted to a hyperbolic curve using the equation A=Amax*X/(Ks+X)+C*X, where A is the amplitude of the spectra, X the concentration of ligand, and C the contribution from ligand absorbance. The computed regression curve is shown as well as the experimental data points.
(§3) Microsomes from yeast WAT11 cells expressing the CYP83A1 and CYP83B1 cDNA using the pYeDP60 vector were isolated and the amount of functional enzyme quantified essentially according to Pompon et al. (1996) Methods Enzymol. 272:51-64. […] 13:101-111 and references therein. Vmax and Km were determined as previously described using 2.2 nM of CYP83A1 or CYP83B1 and 50 mM L-cysteine as thiol donor (Bak et al. (2001) Plant Cell. 13:101-111). […] Vmax, Km, and Ks were calculated using SigmaPlot 5.0 (SPSS Inc.). For analysis of CYP83B1 activity in the presence or absence of thiol donors, recombinant CYP83B1 was reconstituted and analyzed as previously described (Bak et al. (2001) Plant Cell. 13:101-111).
(§4) To characterize the topology of the active sites of […] and CYP83B 1, we have taken advantage of the ability of nitrogen-containing ligands like primary amines to produce type II spectra with cytochrome P450 enzymes by binding to the active site bringing the electron lone pairs of the amine group in close vicinity to the heme iron (Jefcoate C. R. (1978) Methods Enzymol 27:258-279). This gives rise to a characteristic spectrum with a trough around 390 nm and a peak around 425 nm.
(§5) By titrating the amplitude of the type II difference spectra with increasing concentrations of ligand, Ks values were determined for tryptamine and β-phenylethylamine (FIG. 7).

[3] = molecular target: T1, CYP83B1; assay: biochemical; conditions: for Relative affinity for ligand binding, from amplitudes of type II spectra / Type II spectrum (ligand binding to active site): CYP83B1, 200 μM ligand
Source text: as §1, §2, §3, §4, §5

[4] = molecular target: T2, CYP83A1; assay: Reconstitution with oximes, turnover numbers by GC-MS; type: biochemical; set-up: made in house; host or cells: yeast WAT11 cells, pYeDP60 vector; microsomes; conditions: CYP83A1 0.5 μM, 1 mM substrate, β-mercaptoethanol thiol donor, 20 min at 28° C.
Protocol: (§6) Turnover numbers were calculated based on the relative areas under the substrate and product peaks. Silylated substrates and products were identified by their fragmentation pattern in both electron impact mode and chemical ionization mode.
(§7) Reconstitution experiments were also conducted to compare the ability of CYP83A1 and CYP83B1 to metabolize other oximes. The putative substrates tested were p-hydroxyphenylacetaldoxime derived from tyrosine and phenylacetaldoxime derived from phenylalanine. In all studies, β-mercaptoethanol was the thiol donor. […] Conversely, the turnover of p-hydroxyphenylacetaldoxime was higher using CYP83A1 compared to CYP83B 1. Phenylacetaldoxime was identified as a substrate for CYP83A1 as well as for CYP83B1 but the turnover numbers were low (Table 1).

[5] = molecular target: T1, CYP83B1; assay: as above; type: biochemical; set-up: made in house; host or cells: yeast WAT11 cells, pYeDP60 vector; microsomes; conditions: CYP83B1 0.5 μM, 1 mM substrate, β-mercaptoethanol thiol donor, 20 min at 28° C.
Protocol: as §6, §7

[6] = molecular target: T1, CYP83B1; assay: Kinetics of indole-3-acetaldoxime metabolism by recombinant enzyme in yeast microsomes
Protocol: Computed regression curves as well as the experimental data points are shown. The correlation coefficients (R^2) for CYP83B1 and CYP83A1 regression analyses are 0.985 and 0.999, respectively.
as §3

[7] = tested on: ON=CCc1c[nH]c2ccccc12; assay: cells, lysate or membranes named; conditions: other: CYP83A1 in yeast microsomes, 2.2 nM enzyme, 50 mM L-cysteine as thiol donor
[8] = substrate: ON=CCc1c[nH]c2ccccc12; assay: cells, lysate or membranes named; conditions: other: CYP83B1 in yeast microsomes, 2.2 nM enzyme, 50 mM L-cysteine as thiol donor

NCCc1c[nH]c2ccccc12 [tryptamine]
Inhibition of metabolism of indole-3-acetaldoxime [1]: inhibits metabolism of indole-3-acetaldoxime | Kd [2]: 240 ± 180 µM | Relative affinity for ligand binding, from amplitudes of type II spectra [2]: n-octylamine>>α-phenylethylamine=tryptarine>tyramine | Kd [3]: 18 ± 5 µM | Relative affinity for ligand binding, from amplitudes of type II spectra [3]: tryptamine >>β-phenylethylanine>n-octylamine>tyramine | Fold stronger binding to CYP83B1 compared to CYP83A1 ([3]; from Ks values): 13 fold | Fold stronger ligand for CYP83B1 compared to β-phenylethylamine ([3]; from Ks values): 30 fold

ON=CCc1ccccc1 [phenylethylacetaldoxime, phenylacetaldoxime]
Turnover phenylethylacetaldoxime [4]: 7.2 min⁻¹ | Turnover phenylethylacetaldoxime [5]: 15 min⁻¹

NCCc1c[nH]c2ccc(O)cc12 [5-OH-tryptamine]
Type II spectrum (ligand binding to active site) [2]: abolished binding | Type II spectrum (ligand binding to active site) [3]: abolished binding

ON=CCc1ccc(O)cc1 [p-hydroxyphenylacetaldoxime]
Turnover p-hydroxyphenylacetaldoxime [4]: 25 min⁻¹ | Turnover p-hydroxyphenylacetaldoxime [5]: 9.8 min⁻¹

ON=CCc1c[nH]c2ccccc12 [indole-3-acetaldoxime]
Fold higher catalytic efficiency (Vmax/Km), CYP83B1 compared to CYP83A1 ([6]; indole-3-acetaldoxime as substrate): 20 fold | Fold difference in Km / affinity, CYP83B1 versus CYP83A1 ([6]; indole-3-acetaldoxime, higher affinity (lower Km) for CYP83B1): 50 fold | Turnover, indole-3-acetaldoxime [4]: 10 min⁻¹ | Turnover, indole-3-acetaldoxime [5]: 26 min⁻¹

CYP83A1 (Arabidopsis thaliana)
Km [7]: 150 ± 15 µM | kcat [7]: 2.33 ± 0.167 s⁻¹

NCCc1ccccc1 [β-phenylethylamine]
Kd [2]: 390 ± 70 µM | Relative affinity for ligand binding, from amplitudes of type II spectra [2]: n-octylamine>>α-phenylethylamine=tryptarine>tyramine | Type II spectrum (ligand binding to active site) [2]: type II spectra were observed | Kd [3]: 540 ± 180 µM | Relative affinity for ligand binding, from amplitudes of type II spectra [3]: tryptamine >>β-phenylethylanine>n-octylamine>tyramine | Type II spectrum (ligand binding to active site) [3]: type II spectra were observed

CCCCCCCCN [n-octylamine]
Relative affinity for ligand binding, from amplitudes of type II spectra [2]: n-octylamine>>α-phenylethylamine=tryptarine>tyramine | Type II spectrum (ligand binding to active site) [2]: type II spectra were observed | Relative affinity for ligand binding, from amplitudes of type II spectra [3]: tryptamine >>β-phenylethylanine>n-octylamine>tyramine | Type II spectrum (ligand binding to active site) [3]: type II spectra were observed

N#CCc1c[nH]c2ccccc12 [Indole-3-acetonitrile]
Type II spectrum (ligand binding to active site) [2]: did not produce a type II spectrum | Type II spectrum (ligand binding to active site) [3]: did not produce a type II spectrum

B1: CYP83B1 (Arabidopsis thaliana) (protein)
chain: T1 sequence (O65782 1-499)
Km [8]: 3.1 ± 0.4 µM
